What follows are compounds tested against T1, Human eIF4E (Homo sapiens, UniProt P06730) (assay: Human eIF4E/4G2 binding assay (TR-FRET)). Settings: purified human eIF4E (aa 28-217), biotin labeled 4G2 peptide, 4 hours preincubation at room temperature.
T1 construct: Human eIF4E (aa 28-217) with a C-terminal His-tag; made in house
Protocol: Example 3. Compound Testing in Human eIF4E/4G2 Binding Assay
Human eIF4E (aa 28-217) with a C-terminal His-tag was expressed in E. coli in inclusion bodies. The protein was solubilized with 8 M urea and purified under denaturing conditions using nickel-charged HisTrap HP columns (GE Healthcare). The purified protein was then refolded by diluting in 20 mM Hepes pH 7.0, 0.5 M NaCl, 1 mM DTT, 1 mM EDTA, 0.5 M arginine plus 6 M urea, and then dialyzing overnight into the same buffer without the urea. The protein was further dialyzed into 20 mM Hepes, pH 6.5, 50 mM NaCl, 1 mM EDTA, 1 mM DTT, and concentrated using Hitrap SP sepharose FF columns (GE Healthcare). The concentrated protein was dialyzed into 20 mM Hepes, pH 7.0, 0.5 M NaCl, 5 mM DTT and 10% glycerol, and stored at -80° C. until use.
Test compounds (3.43 mM stock in DMSO) were diluted 2-fold in series in DMSO (10 concentration points). Compound solutions (1.2 µl/well) were added into black 384-well polypropylene microplates (Matrix, Thermal Scientific). Twenty-two microliters per well of Assay Buffer (50 mM NaPi, pH 6.5, 50 mM KCl, 1 mM DTT and 0.5 mg/ml gamma globulin) and eight microliters per well of 82.5 nM purified eIF4E in Assay Buffer were added. The samples were incubated at room temperature (20-23° C.) for 4 hours. Biotin labeled 4G2 peptide (Ac-Lys-Gln-Tyr-Asp-Arg-Glu-Phe-Leu-Leu-Asp-Phe-Gln-Phe-Met-Pro-Lys(Aha-Bio)-NH2, 1.75 µM stock in DMSO) was diluted to 0.14 µM in Assay Buffer (without DTT) and 5 µl/well was added. The samples were incubated at room temperature for 20 min. Five microliters per well of 6.4 nM Eu-streptavidin (Eu-SA, Perkin Elmer) and 80 nM Allophycocyanin (APC)-anti His antibody (Columbia Biosciences) in Assay Buffer (without DTT) were then added and the samples were incubated at room temperature for 20 min.
Assay signals were monitored by reading excitation at 340 nm and emission fluorescence at 615 nm and 665 nm on an Envision reader (Perkin Elmer). Normalized TR-FRET (time-resolved fluorescence resonance energy transfer) assay signal (Rn) was calculated by the formula: Rn = [(A-Ba-C x D)/(D-Bd)] x (Dc- Bd) • Where A is the fluorescence intensity of the sample at 665 nm, • D is the fluorescence intensity of the sample at 615 nm, • Ba and Bd are plate backgrounds at 665 nm and 615 nm, respectively, • Dc is the fluorescence intensity of 0.78 nM Eu-SA in the assay buffer at 615 nm • The cross-talk factor (C) is determined by the following formula: • C = (Ac- Ba)/(Dc-Bd) • Where Ac is the fluorescence intensity of 0.78 nM Eu-SA in the assay buffer at 665 nm.
IC50 values were calculated using xLFit program (IDBS). Table 2 below lists […] of some compounds, wherein A represents IC50 ≤ 0.5 µM; B represents 0.5 uM < IC50 ≤ 1 µM; and C represents IC50 > 1 µM.

T1 sequence (P06730 28-217): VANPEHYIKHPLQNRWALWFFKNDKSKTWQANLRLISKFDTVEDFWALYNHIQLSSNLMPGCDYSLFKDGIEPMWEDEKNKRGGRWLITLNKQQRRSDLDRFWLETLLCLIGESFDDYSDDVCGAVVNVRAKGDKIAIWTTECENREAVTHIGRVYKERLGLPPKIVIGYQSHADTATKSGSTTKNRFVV

SMILES	IC50 [µM]
COCCOc1ccc(-c2nc(Nc3ncc(-c4cccs4)cc3C(=O)O)sc2CC(C)(C)C)cc1F [I-65]	≤ 0.5
CCOCCOc1ccc(-c2nc(Nc3ncc(-c4cccs4)cc3C(=O)O)sc2CC(C)C)cc1F [I-66]	≤ 0.5
COc1ccc(-c2nc(Nc3ncc(-c4cccs4)cc3C(=O)O)sc2CCC(C)C)cc1F [I-69]	≤ 0.5
COc1ccc(-c2nc(Nc3ccc(-c4cccs4)nc3C(=O)O)sc2CC(C)C)cc1F [I-70]	≤ 0.5
COc1ccc(-c2nc(Nc3cnc(-c4cccs4)cc3C(=O)O)sc2CC(C)C)cc1F [I-71]	0.5 to 1
COCCOc1ccc(-c2nc(Nc3ncc(-c4cccs4)cc3C(=O)O)sc2CC2CCCCC2)cc1F [I-72]	≤ 0.5
COc1cc(-c2nc(Nc3ncc(-c4cccs4)cc3C(=O)O)sc2CC(C)C)ccc1Cl [I-74]	≤ 0.5
COc1cc(-c2nc(Nc3ncc(-c4cccs4)cc3C(=O)O)sc2CC(C)C)ccc1C(F)(F)F [I-77]	≤ 0.5
COc1cccc(-c2nc(Nc3ncc(-c4cccs4)cc3C(=O)O)sc2CC(C)C)c1 [I-78]	≤ 0.5
CCOc1cc(-c2nc(Nc3ncc(-c4cccs4)cc3C(=O)O)sc2CC(C)C)ccc1F [I-81]	≤ 0.5
COCCOc1cc(-c2nc(Nc3ncc(-c4cccs4)cc3C(=O)O)sc2CCC(C)C)ccc1F [I-84]	≤ 0.5
CC(C)Cc1sc(Nc2ncc(-c3cccs3)cc2C(=O)O)nc1-c1ccc(F)c(OC(C)C)c1 [I-86]	≤ 0.5
CC(C)Cc1sc(Nc2ncc(-c3cccs3)cc2C(=O)O)nc1-c1ccc(F)c(OCCOC(C)C)c1 [I-87]	≤ 0.5
COc1cc(-c2nc(Nc3ncc(-c4cccs4)cc3C(=O)O)sc2CCC(C)C)ccc1C(F)(F)F [I-88]	≤ 0.5
CC(C)COc1cc(-c2nc(Nc3ncc(-c4cccs4)cc3C(=O)O)sc2CC(C)C)ccc1F [I-89]	≤ 0.5
COc1cc(-c2nc(Nc3ncc(-c4cccs4)cc3C(=O)O)sc2CC(C)(C)C)ccc1F [I-91]	≤ 0.5
CCOc1cc(-c2nc(Nc3ncc(-c4cccs4)cc3C(=O)O)sc2CC(C)(C)C)ccc1Cl [I-93]	≤ 0.5
CC(C)COc1cc(-c2nc(Nc3ncc(-c4cccs4)cc3C(=O)O)sc2CC(C)(C)C)ccc1F [I-96]	≤ 0.5
CC(C)COc1cc(-c2nc(Nc3ncc(-c4cccs4)cc3C(=O)O)sc2CC(C)(C)C)ccc1Cl [I-97]	≤ 0.5

SMILES	IC50 [µM]
CCOc1cccc(-c2nc(Nc3ncc(-c4cccs4)cc3C(=O)O)sc2CC(C)(C)C)c1 [I-98]	≤ 0.5
CC(C)Cc1sc(Nc2ncc(-c3cccs3)cc2C(=O)O)nc1-c1cccc(OCC(F)(F)F)c1 [I-102]	≤ 0.5
CC(C)Cc1sc(Nc2ncc(-c3cccs3)cc2C(=O)O)nc1-c1cccc(OCCF)c1 [I-103]	≤ 0.5
COc1cc(-c2nc(Nc3ncc(-c4cccs4)cc3C(=O)O)sc2CC(C)C)cc(C(F)(F)F)c1 [I-104, 2-((5-isobutyl-4-(3-methoxy-5-(trifluoromethyl)phenyl)thiazol-2-yl)amino)-5-(thiophen-2-yl)nicotinic acid]	≤ 0.5
CCOc1cccc(-c2nc(Nc3ncc(-c4cccs4)cc3C(=O)O)sc2CCC(C)C)c1 [I-105]	≤ 0.5
CCCOc1cccc(-c2nc(Nc3ncc(-c4cccs4)cc3C(=O)O)sc2CC(C)C)c1 [I-106]	≤ 0.5
COc1cc(-c2nc(Nc3ncc(-c4cccs4)cc3C(=O)O)sc2CCC(C)C)ccc1C [I-108]	≤ 0.5
COc1cc(C)cc(-c2nc(Nc3ncc(-c4cccs4)cc3C(=O)O)sc2CC(C)C)c1 [I-109]	≤ 0.5
CCc1ccc(-c2nc(Nc3ncc(-c4cccs4)cc3C(=O)O)sc2CC(C)C)cc1OC [I-110]	≤ 0.5
CC(C)Cc1sc(Nc2ncc(-c3cccs3)cc2C(=O)O)nc1-c1cccc(OC(C)C)c1 [I-113]	≤ 0.5
CCOc1cccc(-c2nc(Nc3ncc(-c4ccco4)cc3C(=O)O)sc2CC(C)C)c1 [I-115]	≤ 0.5
CC(C)Cc1sc(Nc2ncc(-c3cccs3)cc2C(=O)O)nc1-c1cccc(OCCOCCN(C)C)c1 [I-116]	> 1
COCCOc1cccc(-c2nc(Nc3ncc(-c4cccs4)cc3C(=O)O)sc2CC(C)C)c1 [I-122, 2-((5-isobutyl-4-(3-(2-methoxyethoxy)phenyl)thiazol-2-yl)amino)-5-(thiophen-2-yl)nicotinic acid]	≤ 0.5
CCc1cccc(-c2nc(Nc3ncc(-c4cccs4)cc3C(=O)O)sc2CC(C)C)c1 [I-123]	≤ 0.5
CC(C)Cc1sc(Nc2ncc(-c3cccs3)cc2C(=O)O)nc1-c1cccs1 [I-126]	≤ 0.5
CC(C)Cc1sc(Nc2ncc(-c3cccs3)cc2C(=O)O)nc1-c1ccsc1 [I-127]	≤ 0.5
CC(C)Cc1sc(Nc2ncc(-c3cccs3)cc2C(=O)O)nc1-c1cccc(Oc2ccccc2)c1 [I-129, 2-((5-isobutyl-4-(3-phenoxyphenyl)thiazol-2-yl)amino)-5-(thiophen-2-yl)nicotinic acid]	≤ 0.5
Cc1ccc(-c2nc(Nc3ncc(-c4cccs4)cc3C(=O)O)sc2CC(C)C)s1 [I-141]	≤ 0.5
COCCOc1cccc(-c2nc(Nc3ncc(-c4cccs4)cc3C(=O)OC)sc2CC(C)C)c1 [I-148, methyl 2-((5-isobutyl-4-(3-(2-methoxyethoxy)phenyl)thiazol-2-yl)amino)-5-(thiophen-2-yl)nicotinate]	> 1

Now from value to compound:

IC50 [µM]	SMILES
≤ 0.5	CC(C)Cc1sc(Nc2ncc(-c3cccs3)cc2C(=O)O)nc1-c1ccc(OCCOC(C)C)c(F)c1 [I-67]
0.5 to 1	COCCOCCOc1ccc(-c2nc(Nc3ncc(-c4cccs4)cc3C(=O)O)sc2CC(C)C)cc1F [I-68]
0.5 to 1	COc1cc(-c2nc(Nc3ncc(-c4cccs4)cc3C(=O)O)sc2CC(C)C)ccc1F [I-73]
≤ 0.5	COCCOc1cc(-c2nc(Nc3ncc(-c4cccs4)cc3C(=O)O)sc2CC(C)C)ccc1C(F)(F)F [I-76, 2-((5-isobutyl-4-(3-(2-methoxyethoxy)-4-(trifluoromethyl)phenyl)thiazol-2-yl)amino)-5-(thiophen-2-yl)nicotinic acid]
≤ 0.5	CCOc1cccc(-c2nc(Nc3ncc(-c4cccs4)cc3C(=O)O)sc2CC(C)C)c1 [I-79]
≤ 0.5	CCOc1cc(-c2nc(Nc3ncc(-c4cccs4)cc3C(=O)O)sc2CC(C)C)ccc1Cl [I-80]
≤ 0.5	COc1cc(-c2nc(Nc3ncc(-c4cccs4)cc3C(=O)O)sc2CCC(C)C)ccc1F [I-82]
≤ 0.5	COCCOc1cc(-c2nc(Nc3ncc(-c4cccs4)cc3C(=O)O)sc2CCC(C)C)ccc1Cl [I-83]
≤ 0.5	COc1cc(-c2nc(Nc3ncc(-c4cccs4)cc3C(=O)O)sc2CCC(C)C)ccc1Cl [I-90]
≤ 0.5	CCOc1cc(-c2nc(Nc3ncc(-c4cccs4)cc3C(=O)O)sc2CC(C)(C)C)ccc1F [I-92]
≤ 0.5	COc1cc(-c2nc(Nc3ncc(-c4cccs4)cc3C(=O)O)sc2CC(C)C)ccc1C [I-107]
0.5 to 1	CC(C)Cc1sc(Nc2ncc(-c3cccs3)cc2C(=O)O)nc1-c1cccc(O)c1 [I-111]
≤ 0.5	CCCc1sc(Nc2ncc(-c3cccs3)cc2C(=O)O)nc1-c1cccc(OCC)c1 [I-112]
≤ 0.5	Cc1ccc(-c2nc(Nc3ncc(-c4cccs4)cc3C(=O)O)sc2CC(C)C)cc1OC(C)C [I-114]
> 1	CCN(CC)CCOCCOc1cccc(-c2nc(Nc3ncc(-c4cccs4)cc3C(=O)O)sc2CC(C)C)c1 [I-117]
≤ 0.5	COCCOc1cc(C)cc(-c2nc(Nc3ncc(-c4cccs4)cc3C(=O)O)sc2CC(C)C)c1 [I-118]
≤ 0.5	CC(C)Cc1sc(Nc2ncc(-c3cccs3)cc2C(=O)O)nc1-c1ccc2c(c1)OCO2 [I-124, 2-((4-(benzo[d][1,3]dioxol-5-yl)-5-isobutylthiazol-2-yl)amino)-5-(thiophen-2-yl)nicotinic acid]
≤ 0.5	CC(C)Cc1sc(Nc2ncc(-c3cccs3)cc2C(=O)O)nc1-c1ccc2c(c1)OC(C)(C)O2 [I-125]
0.5 to 1	CCOc1cccc(-c2nc(Nc3cc(C(=O)O)c(-c4cccs4)cn3)sc2CC(C)C)c1 [I-130, 2-((4-(3-ethoxyphenyl)-5-isobutylthiazol-2-yl)amino)-5-(thiophen-2-yl)isonicotinic acid]

— US20230150997A1, “EIF4E INHIBITORS AND USES THEREOF” (PIC Therapeutics, Inc., priority 2021, published 2023)
